For 6 compounds, IC50 results are on record in patent US20220315593A1, “EGFR INHIBITORS FOR THE TREATMENT OF CANCER” (Hoffmann-La Roche Inc., priority 2019, published 2022).

Assay [1] concerns the target T1, EGFR TMLRCS (T790M/L858R/C797S), BaF3-TMLRCS cell line (Homo sapiens, UniProt P00533, C797S/L858R/T790M).
T1 construct: host or cells: BaF3
In words: HTRF Phospho EGFR TMLRCS Assay (Cellular). The assay is classed as cell-based. To be noted: BaF3-TMLRCS cells, 4 hours compound incubation. As to the method:
HTRF Phospho EGFR TMLRCS Assay (Cellular)
BaF3-TMLRCS cell line were obtained from Crownbio (San Diego, Calif., USA). Cells were maintained at 37° C., 5% CO2 in RPMI ATCC (Gibco 31870) +2mM Glutamine+0.5 μg/ml Puromycin supplemented with 10% fetal bovine serum (FBS) (Gibco).
Cells are transferred as above to Greiner Bio-One, Nr. 784-08 micro-titerplate at 20000 cells/well in 12.5 μl of growth medium/well after the plates had been pre-filled with 12.5 nl of DMSO solutions of the to be tested compounds (in dose response) or DMSO only. After spinning the plates at 300×g for 30 seconds the cells were incubated for 4 hours at 37 C, 5% CO2, 95% humidity. The cells were lysed by adding to the compound mix 4 μl/well of the supplemented lysis buffer (Cis-bio, Phospho-EGFR HTRF kit, 64EG1PEH), followed by incubation for 30 min at room temperature with shaking (400 rpm). The plates were then frozen and stored overnight at −80 C. On the next day and after thawing the plates, 4 μl of a mixture of anti-Phospho-EGFR Cryptate and of anti-Phospho-EGFR-d2 antibody solutions prepared in the supplied detection buffer was added to each well. The lidded plates were then incubated for 4 h at room temperature before reading the fluorescence emission at 616 and 665 nm using an Envision reader (Perkin Elmer). Data was analyzed in similar fashion as above using the normalized ratio of the 665 to 616 signals multiplied by 10000.

The target of assay [2] is T2, EGFR TMLR (T790M/L858R), H1975 cell line (Homo sapiens, UniProt P00533, L858R/T790M).
T2 construct: H1975 cell line (CRL-5908; Lot BA70803) was obtained from American Type Culture Collection; host or cells: H1975
In words: HTRF Phospho EGFR TMLR Assay (Cellular). Type of assay: cell-based. The settings on record: H1975 cells, 16 hours compound incubation. As to the method: HTRF Phospho EGFR TMLR Assay (Cellular)
H1975 cell line (CRL-5908; Lot BA70803) was obtained from American Type Culture Collection (Manassas, Va., USA). Cells were maintained at 37° C., 5% CO2 in complete Media RPMI 1640 without phenol red containing 0.3 mg/ml glutamine, 100 IU/ml penicillin, and […] streptomycin (Gibco, 15140-122) supplemented with 10% fetal bovine serum (FBS, Gibco, 10091-148). Compounds were diluted into starving medium RPMI 1640 Media (Gibco, 11835-030) without phenol red containing 0.3 mg/ml glutamine, 100 IU/ml penicillin, and […] streptomycin (Gibco).
Cells were cultured for 24 h in a 384-well plate (Greiner Bio-One, Nr. 784-080; 5000 cells/well) using 8 μl of complete medium/well. Then 4 μl/well of the 3× compound solution, containing a factor 3 dilution series of the compound or DMSO in starving medium, were added to the cells (final DMSO 0.33%). After 16 hours at 37° C., 5% CO2, 95% rel. humidity cells were lysed by adding to the compound mix 4 μl/well of the supplemented lysis buffer (Cis-bio, Phospho-EGFR HTRF kit, 64EG1PEH), followed by incubation for 30 min at room temperature with shaking (400 rpm). Then 4 μl of a mixture of anti-Phospho-EGFR Cryptate and of anti-Phospho-EGFR-d2 antibody solutions prepared in the detection buffer was added. The plates were then incubated for 4 h at room temperature before reading the fluorescence emission at 620 and 665 nm using an Envision reader (Perkin Elmer).

T1 sequence (P00533 25-1210 T790M/C797S/L858R): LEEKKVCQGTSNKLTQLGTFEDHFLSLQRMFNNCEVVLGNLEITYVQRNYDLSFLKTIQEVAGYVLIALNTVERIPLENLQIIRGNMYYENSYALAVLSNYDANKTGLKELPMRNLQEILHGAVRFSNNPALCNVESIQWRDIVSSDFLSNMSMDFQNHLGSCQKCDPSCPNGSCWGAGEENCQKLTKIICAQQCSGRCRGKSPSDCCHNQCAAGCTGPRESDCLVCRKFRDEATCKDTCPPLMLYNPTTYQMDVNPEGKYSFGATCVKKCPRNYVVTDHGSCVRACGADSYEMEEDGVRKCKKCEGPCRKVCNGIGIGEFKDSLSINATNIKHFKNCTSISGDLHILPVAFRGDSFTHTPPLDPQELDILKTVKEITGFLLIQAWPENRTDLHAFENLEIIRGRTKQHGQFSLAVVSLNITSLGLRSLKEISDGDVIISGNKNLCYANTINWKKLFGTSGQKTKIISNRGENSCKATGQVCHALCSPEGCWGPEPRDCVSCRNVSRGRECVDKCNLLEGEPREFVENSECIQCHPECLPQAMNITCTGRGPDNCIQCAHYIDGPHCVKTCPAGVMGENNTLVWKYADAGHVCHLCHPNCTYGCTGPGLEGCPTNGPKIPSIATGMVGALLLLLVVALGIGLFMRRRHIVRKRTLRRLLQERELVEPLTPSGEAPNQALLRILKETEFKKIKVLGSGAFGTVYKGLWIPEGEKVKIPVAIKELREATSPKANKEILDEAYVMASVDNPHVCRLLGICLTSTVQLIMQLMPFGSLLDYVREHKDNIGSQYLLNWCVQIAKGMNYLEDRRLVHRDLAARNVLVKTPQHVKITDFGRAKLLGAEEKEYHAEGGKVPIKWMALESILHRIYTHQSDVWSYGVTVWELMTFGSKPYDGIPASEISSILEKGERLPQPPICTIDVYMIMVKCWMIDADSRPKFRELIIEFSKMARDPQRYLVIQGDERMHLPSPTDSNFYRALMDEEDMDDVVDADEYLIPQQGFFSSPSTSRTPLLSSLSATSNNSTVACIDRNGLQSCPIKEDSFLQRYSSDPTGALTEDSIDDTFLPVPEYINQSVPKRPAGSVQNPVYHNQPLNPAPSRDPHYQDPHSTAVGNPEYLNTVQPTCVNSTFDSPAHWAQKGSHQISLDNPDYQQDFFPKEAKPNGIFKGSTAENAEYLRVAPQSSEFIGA
T2 sequence (P00533 25-1210 T790M/L858R): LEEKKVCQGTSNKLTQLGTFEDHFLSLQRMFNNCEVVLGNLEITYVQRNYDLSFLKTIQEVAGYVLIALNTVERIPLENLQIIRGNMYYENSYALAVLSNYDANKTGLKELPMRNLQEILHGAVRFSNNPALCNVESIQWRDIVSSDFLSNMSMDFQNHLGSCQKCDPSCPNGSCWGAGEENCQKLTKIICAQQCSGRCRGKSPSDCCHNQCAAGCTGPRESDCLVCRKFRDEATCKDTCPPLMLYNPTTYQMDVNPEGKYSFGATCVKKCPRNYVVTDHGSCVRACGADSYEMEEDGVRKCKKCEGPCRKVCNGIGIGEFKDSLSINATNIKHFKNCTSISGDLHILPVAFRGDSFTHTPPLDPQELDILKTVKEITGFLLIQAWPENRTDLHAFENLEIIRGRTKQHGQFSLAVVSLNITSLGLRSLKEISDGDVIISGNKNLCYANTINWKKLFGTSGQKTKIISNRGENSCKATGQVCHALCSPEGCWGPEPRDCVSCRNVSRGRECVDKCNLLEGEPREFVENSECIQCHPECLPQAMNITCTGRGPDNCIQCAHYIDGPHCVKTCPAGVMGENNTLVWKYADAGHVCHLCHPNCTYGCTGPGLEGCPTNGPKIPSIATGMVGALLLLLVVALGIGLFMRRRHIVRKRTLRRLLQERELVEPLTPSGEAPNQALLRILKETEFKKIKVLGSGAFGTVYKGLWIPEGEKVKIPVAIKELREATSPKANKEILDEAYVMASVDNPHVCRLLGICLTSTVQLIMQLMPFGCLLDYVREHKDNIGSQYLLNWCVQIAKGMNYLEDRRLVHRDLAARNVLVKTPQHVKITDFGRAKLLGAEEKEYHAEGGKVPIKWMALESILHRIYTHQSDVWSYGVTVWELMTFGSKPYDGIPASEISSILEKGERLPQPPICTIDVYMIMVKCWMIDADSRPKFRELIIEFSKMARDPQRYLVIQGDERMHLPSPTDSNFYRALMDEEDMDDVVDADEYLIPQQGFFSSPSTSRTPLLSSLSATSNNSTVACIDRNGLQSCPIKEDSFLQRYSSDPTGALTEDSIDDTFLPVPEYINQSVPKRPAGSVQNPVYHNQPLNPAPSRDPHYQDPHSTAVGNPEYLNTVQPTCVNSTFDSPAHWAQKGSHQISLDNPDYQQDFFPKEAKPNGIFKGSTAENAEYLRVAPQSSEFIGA

Turning to `O=C(Nc1nccs1)C(c1ncn2c1C[C@@H](F)C2)n1cc2c(F)cc(-c3ccc(N4CCOCC4)c(F)c3)cc2n1` (stereo partly drawn) [Example 5, 2-((R)-6-Fluoro-6,7-dihydro-5H-pyrrolo[1,2-c]imidazol-1-yl)-2-(4-fluoro-6-(3-fluoro-4-morpholinophenyl)-2H-indazol-2-yl)-N-(thiazol-2-yl)acetamide], the 50% inhibitory concentration (IC50) was 5 nM in assay [1] and 1 nM in assay [2]. Consider `O=C(Nc1nccs1)C(c1ncn2c1CCC2)n1cc2c(Cl)cc(-c3ccc(N4CCOCC4)cc3)c(F)c2n1` (stereo not drawn) [Example 10, 2-(4-Chloro-7-fluoro-6-(4-morpholinophenyl)-2H-indazol-2-yl)-2-(6,7-dihydro-5H-pyrrolo[1,2-c]imidazol-1-yl)-N-(thiazol-2-yl)acetamide], for which, in assay [2], it took 1 nM to reach half-maximal inhibition (IC50). Turning to `O=C(Nc1nccs1)C(c1ncn2c1CCC2)n1cc2c(Cl)cc(-c3ccc(N4CCOCC4)cc3)c(Cl)c2n1` (stereo not drawn) [Example 14, 2-(4,7-Dichloro-6-(4-morpholinophenyl)-2H-indazol-2-yl)-2-(6,7-dihydro-5H-pyrrolo[1,2-c]imidazol-1-yl)-N-(thiazol-2-yl)acetamide], the half-maximal inhibitory concentration (IC50) in assay [1] worked out at 22 nM; in assay [2], 3 nM. For the compound `O=C(Nc1nccs1)C(c1ncn2c1CCC2)n1cc2c(Cl)cc(-c3ccc(N4CCOCC4)c(F)c3)c(F)c2n1` (stereo not drawn) [Example 17, 2-(4-Chloro-7-fluoro-6-(3-fluoro-4-morpholinophenyl)-2H-indazol-2-yl)-2-(6,7-dihydro-5H-pyrrolo[1,2-c]imidazol-1-yl)-N-(thiazol-2-yl)acetamide], the 50% inhibitory concentration (IC50) in assay [2] was determined as 2 nM.

The compound `O=C(Nc1nccs1)C(c1ncn2c1CCC2)n1cc2c(F)cc(-c3ccc(N4CCOCC4)c(F)c3)cc2n1` (stereo not drawn) [Example 11, 2-(6,7-Dihydro-5H-pyrrolo[1,2-c]imidazol-1-yl)-2-(4-fluoro-6-(3-fluoro-4-morpholinophenyl)-2H-indazol-2-yl)-N-(thiazol-2-yl)acetamide] showed a 50% inhibitory concentration (IC50) in assay [2] of 1 nM. As to `COc1c(-c2ccc(N3CCOCC3)cc2)cc(Cl)c2cn(C(C(=O)Nc3nccs3)c3ncn4c3C[C@@H](F)C4)nc12` (mixture of isomers) [Example 19, 2-[4-Chloro-7-methoxy-6-(4-morpholin-4-ylphenyl)indazol-2-yl]-2-[rac-(6R)-6-fluoro-6,7-dihydro-5H-pyrrolo[1,2-c]imidazol-1-yl]-N-(1,3-thiazol-2-yl)acetamide], the half-inhibitory concentration (IC50) came out at 7 nM in assay [1] and 1 nM in assay [2].
